# Test results reported in patent US20250099402A1, “COMPOSITIONS OF ASPIRIN AND KETAMINE” (Vitalis Analgesics LLC, priority 2022, published 2025).
# Like-named read-outs stand apart in the source and are kept apart here.
# How the values were obtained:
# [1] = system: acute musculoskeletal pain; conditions: data collected from similar trials, same protocol, scales, center and team, agents and doses per Table 5, FIG. 1, cited from earlier work
# [2] = system: acute pain due to fracture; conditions: intravenous, public domain data; cited from earlier work
# [3] = cited from earlier work
# [4] = Compatibility of ketamine and aspirin with spray coating solvents; conditions: alcohol solvents for ketamine, aqueous solutions for aspirin
# [5] = Ketamine pharmacokinetics and onset of action by route (background); conditions: ketamine given concurrently through the GI
# [6] = in vivo; cited from earlier work
# [7] = cited from earlier work; remark: listed apart in the source
smiles,measurement,setting,value
"CN1CC[C@]23c4c5ccc(O)c4O[C@H]2[C@@H](O)C=C[C@H]3[C@H]1C5 [IV morphine, Morphine]","reduction of acute musculoskeletal pain, comparator agents",[1],5.1 points
CNC1(c2ccccc2Cl)CCCCC1=O (centres unmarked) [ketamine],"reduction of acute musculoskeletal pain, comparator agents",[1]; listed as intranasal (nebulized) ketamine,about 4 points
same,time of peak pain reduction effect,[2],about 5 mins
same,elimination half-life,[3]; in vivo,2 to 3 h
same,"bioavailability, intramuscular injection",[3]; intramuscular,about 93%
same,"bioavailability, IV",[3]; intravenous,about 100%
same,"time to maximal concentrations, orally",[3]; oral,30 min
same,"bioavailability, oral route","[3]; oral, listed as oral ketamine",18-20%
same,stability in spray coating solvent,[4],reacted with alcohol solvents leading to impurities
same,serum peak concentration later than directly absorbed ketamine,[5],15 to 20 min
NC1(c2ccccc2Cl)CCCCC1=O (centres unmarked) [norketamine],potency as an anesthetic relative to ketamine,[6],one-third to one-fifth
same,plasma levels relative to ketamine,[3]; following oral administration of ketamine,three times higher
"CC(C)Cc1ccc(C(C)C(=O)O)cc1 (centres unmarked) [oral ibuprofen, Ibuprofen]","reduction of acute musculoskeletal pain, comparator agents",[1],2 points
"CN1CC[C@]23c4c5ccc(O)c4O[C@H]2[C@@H](O)C=C[C@H]3[C@H]1C5.O=S(=O)(O)O [oral morphine, Morphine Sulfate]","reduction of acute musculoskeletal pain, comparator agents",[1],about 4 points
N[C@@H]1c2cccnc2[C@H](OC(=O)N2CCC(n3c(=O)[nH]c4ncccc43)CC2)CC[C@H]1c1cccc(F)c1F [rimegepant],absolute oral bioavailability,"[7]; in vivo, po",approximately 64%
same,eliminated in unchanged form,[7]; in vivo,~77 % of the dose
same,time of maximum concentration,[7]; oral administration of NURTEC Orally Disintegrating Tablet,1.5 h
